# Source: patent US20240366564A1, “Use of Chlorophyll Derivatives for the Treatment of SARS-CoV-2 Infection” (priority 2021, published 2024)
# Columns and labels:
# [1] = test system: SARS-CoV-2 USA-WA1/2020 virus; format: cell-based
# [2] = test system: SARS-CoV-2 alpha variant (B.1.1.7 lineage); format: cell-based
smiles,measurement,setting,value
C=Cc1c(C)c2cc3nc(c4c5[nH]c(cc6nc(cc1[nH]2)C(C)=C6CC)c(C)c5C(=O)[C@@H]4C(=O)OC)[C@@H](CCC(=O)O)[C@@H]3C [Pheophorbide A],"inhibition of SARS-CoV-2 infection, summary of FIGS. 5-10",[1],inhibits SARS-CoV-2 infection in a dose-dependent manner
same,effect of photoactivation on inhibition of infection,[2],enhanced with photoactivation
same,inhibition of SARS-CoV-2 infection in culture,[2],significantly inhibits
